Measurements from patent US20210221848A1, “POLYMYXIN DERIVATIVES AND THEIR USE IN COMBINATION THERAPY TOGETHER WITH DIFFERENT ANTIBIOTICS” (priority 2014, published 2021).

Tests used:
K. pneumoniae [1] = test: MIC in the presence of a fixed concentration (2 μg/mL) of Rifampicin; assay type: cell-based, Klebsiella pneumoniae; conditions: Rifampicin 2 μg/mL
E. coli [2] = test: as above; assay type: cell-based, Escherichia coli; conditions: Rifampicin 2 μg/mL
HK-2 cell line = test: In vitro renal cell toxicity assay (resazurin reduction)
Experimental: MICs were determined as described herein. HK-2 cell IC50 values were determined as described herein. Values are reported relative to Polymyxin B.

A. baumannii [3] = test: MIC in the presence of […] of rifampicin; assay type: cell-based, Acinetobacter baumannii
E. coli [4] = conditions: absence of a second agent, Table 6B
P. aeruginosa = conditions: absence of a second agent, Table 6B
P. aeruginosa ATCC 27853 = test: In vivo efficacy, thigh infection in mice, IV dosing, 9 h model; set-up: species or system Pseudomonas aeruginosa; conditions: mouse thigh, dose 3.4 mg/kg drug base IV at 1, 3.5 and 6 h post-infection
Experimental: Compounds were administered in solution by intravenous (IV) bolus injection into the lateral tail vein. […] At 1 hour post infection, 4 animals were humanely euthanized using pentabarbitone overdose to provide a pre-treatment control group. At 9 hours post infection, the clinical condition of all animals was assessed prior to them being humanely euthanized by pentabarbitone overdose. Animal weight was determined before both thighs were removed and weighed individually. Individual thigh tissue samples were homogenized in ice cold sterile phosphate buffered saline. Thigh homogenates were then quantitatively cultured onto cystine lactose electrolyte deficient (CLED) agar and incubated at 37° C. for 24 hours before colonies were counted.

A. baumannii [5] = conditions: absence of a second agent, Table 6B
[6] = test system: Escherichia coli ATCC 25922; conditions: mouse thigh, 1.47 mg/kg/dose free base IV at 1, 3.5 and 6 h post-infection, 9 h model
K. pneumoniae [7] = conditions: absence of a second agent, Table 6B
[8] = A. baumannii ATCC BAA-747, Table 5C
[9] = A. baumannii ATCC BAA-747, Table 5D
[10] = A. baumannii NCTC 13424, Table 5C
[11] = A. baumannii NCTC 13424, Table 5D

| Substance | MIC in combination with Rifampicin, K. pneumoniae ATCC 4352 (K. pneumoniae [1]; Table 5C) [micrograms/mL] | MIC in combination with Rifampicin, K. pneumoniae ATCC 4352 (K. pneumoniae [1]; Table 5D) [micrograms/mL] | MIC in combination with Rifampicin, K. pneumoniae ATCC BAA-2146 (K. pneumoniae [1]; Table 5C) [micrograms/mL] | MIC in combination with Rifampicin, K. pneumoniae ATCC BAA-2146 (K. pneumoniae [1]; Table 5D) [micrograms/mL] | MIC in combination with Rifampicin, E. coli ATCC 25922 (E. coli [2]; Table 5C) [micrograms/mL] | MIC in combination with Rifampicin, E. coli ATCC 25922 (E. coli [2]; Table 5D) [micrograms/mL] | MIC in combination with Rifampicin, E. coli NCTC 13441 (E. coli [2]; Table 5C) [micrograms/mL] | MIC in combination with Rifampicin, E. coli NCTC 13441 (E. coli [2]; Table 5D) [micrograms/mL] | MIC in combination with Rifampicin, A. baumannii ATCC BAA-747 (A. baumannii [3]; [8]) [micrograms/mL] | MIC in combination with Rifampicin, A. baumannii ATCC BAA-747 (A. baumannii [3]; [9]) [micrograms/mL] | MIC in combination with Rifampicin, A. baumannii NCTC 13424 (A. baumannii [3]; [10]) [micrograms/mL] | MIC in combination with Rifampicin, A. baumannii NCTC 13424 (A. baumannii [3]; [11]) [micrograms/mL] | MIC, E. coli ATCC 25922 (E. coli [4]) [micrograms/mL] | MIC, E. coli NCTC 13441 (E. coli [4]) [micrograms/mL] | MIC, P. aeruginosa ATCC 27853 (P. aeruginosa) [micrograms/mL] | MIC, P. aeruginosa CCUG 59347 (P. aeruginosa) [micrograms/mL] | Log reduction from vehicle (CFU/g) (P. aeruginosa ATCC 27853) [log10 CFU/g] | MIC, A. baumannii ATCC BAA-747 (A. baumannii [5]) [micrograms/mL] | MIC, A. baumannii NCTC 13424 (A. baumannii [5]) [micrograms/mL] | MIC, K. pneumoniae ATCC 4352 (K. pneumoniae [7]) [micrograms/mL] | also measured |
| --- | --- | --- | --- | --- | --- | --- | --- | --- | --- | --- | --- | --- | --- | --- | --- | --- | --- | --- | --- | --- | --- |
| 1,2,3,4- tetrahydroisoquinoline- 4-carbonyl polymyxin B nonapeptide [Example D15] | 0.03 | ≤0.015 | 0.125 | 0.125 | ≤0.015 | ≤0.015 | 0.03 | 0.03 | ≤0.015 | ≤0.015 | ≤0.015 | ≤0.015 | 0.25 | 0.5 | 0.25 | 0.5 | 3.89 | 2 | 2 |  | HK-2 IC50 rel to PMB (HK-2 cell line): 17 |
| (S)-1-benzyl piperazine-2-carbonyl polymyxin B nonapeptide [Example D52] |  |  |  |  |  |  |  |  |  |  |  |  | 0.125 | 0.125 | 0.5 | 0.5 |  | 0.5 | 0.25 | 0.125 | Mean log10 CFU reduction vs. control [6]: 4.04 log10 CFU; MIC, K. pneumoniae ATCC BAA-2146 (K. pneumoniae [7]): 0.25 micrograms/mL |
| (cis-5-cyclohexyl- piperidine)-3-carbonyl polymyxin B nonapeptide [Example D11] | 0.06 | 0.125 | 1 | 0.5 | ≤0.015 | 0.125 | 0.06 | 0.06 | 0.06 | 0.125 | 0.5 | 0.25 | 0.25 | 0.25 | 0.5 | 0.5 | 3.86 | 1 | 0.5 | 0.25 | MIC, K. pneumoniae ATCC BAA-2146 (K. pneumoniae [7]): 0.25 micrograms/mL |
